Measured values reported in patent US7307166B1, “Oxpurine nucleosides and their congeners, and acyl, derivatives thereof, for improvement of hematopoiesis” (Wellstat Therapeutics Corporation, priority 1987, dated 2007).

Key:
[1] = system: bone marrow cells; assay: Colony forming units in bone marrow of mice recovering from cyclophosphamide; type: in vivo, mouse
Description: Seventy-two Balb/C female mice weighing approximately 20-grams each were given cyclophosphamide (275 mg/kg) by intraperitoneal (i.p.) injection. Twenty-four hours later and each day thereafter, mice received a 0.4 ml i.p. injection of either physiological saline (control) or palmitoylguanosine (2.5 μmoles/mouse/day in 0.2% Tween 80). On days 3, 5, 7, and 10 following CP administration 6 animals from each group were sacrificed by cervical dislocation, and the left femur of each animal obtained by sterile means. The bone marrow cells were then flushed from the femurs with McCoy's 5a Modified medium using a 23-gauge needle. Cells from femurs in the same group were pooled, dispersed by briefly vortexing, and counted using a hemocytometer. Cell suspensions were added to McCoy's Modified 5a medium containing 15% bovine calf serum, 1× Kanamycin, 0.3% agar, and 3% endotoxin-stimulated serum. […] Each group was plated in quintuplicate. After 7 days in culture (at 37° in 5% CO2 and humidified air) aggregates of 50 cells or more (“colonies”) were counted using a dissecting microscope at 25×.

[2] = system: IFN-gamma; assay: LPS-induced serum interferon-gamma (ELISA); type: in vivo, mouse
Description: Sixty-three female Balb/C mice were randomly assigned to one of three groups. The animals in one group received a single daily dose of N^2,3′,5′-tripalmitoyldeoxyguanosine (PdG) (25 mg/kg, i.p.), while a second group received a single daily dose of the PdG treatment vehicle (control). The third group was left untreated. On the fourth day 100 μg salmonella typhimurium LPS was administered to all three groups. Serum samples were taken just prior to LPS administration (t=0) and at two, four, six, eight, ten, twelve, sixteen, and twenty hours after LPS administration. The samples were then frozen until the time of assay. Serum levels of TNF-alpha, and IFN-gamma were measured by ELISA.
In the tables below, units for cytokine concentrations are picograms per ml. A value of 0 indicates cytokine levels below the detection limit of the assay (50 to 100 pg/ml).

[3] = system: thymocytes; assay: Corticosteroid-induced apoptosis in mouse thymus; type: in vivo
Description: Thymic lymphocytes, or thymocytes, undergo a suicide process known as apoptosis or programmed cell death in response to various stimuli, including ionizing radiation, calcium ionophores, glucocorticoid hormones, and other agents. Apoptosis is also part of the normal physiological process of development and of lymphocyte (and other cell) selection.
Eight male B6D2F1 mice weighing approximately twenty-five grams were given a single injection of either palmitoyldeoxyguanosine (25 mg/kg, i.p.) in a Tween-DMSO vehicle (0.02% Tween and 7.5% DMSO in physiological saline) or vehicle alone. Forty-eight hours later these mice were given an i.p. injection of a long-acting corticosteroid, methylprednisolone acetate (Depo-Medrol; 250 mg/kg). Forty-eight hours following administration of the corticosteroid, all eight of these animals and four additional untreated animals (basals) were sacrificed by cervical dislocation, the thymuses and spleens removed and weighed, and thymic cell number and viability measured by established methods.

[4] = system: normal mouse bone marrow cells; assay: Proliferation of bone marrow cells in long-term culture; type: cell-based; conditions: 10 micrograms per ml
Description: Bone marrow cells from the femurs of B6D2F1 mice were used to establish long-term marrow cultures. After four weeks, when the stromal layer was confluent, the culture was treated with microphenolic acid in order to remove all cells from the stroma. New normal bone marrow cells (1×10^5/ml) from the same source were then used to “recharge” the stromal layer. Palmitoyldeoxyguanosine was added to half of the cultures at a concentration of 10 micrograms per ml. […] On days 4 and 7 cells from the culture were removed, washed, and replated in methylcellulose. The number of granulo-monocytic colonies was counted one week later.

[5] = system: hematopoietic stem cells; assay: Stem cell mobilization; type: in vivo, mouse
[6] = system: female Balb/C mice; assay: Cecal ligation and puncture (CLP) polymicrobial sepsis survival; type: in vivo, mouse; conditions: 25 mg/kg i.p. daily 3 days prior to CLP
Description: N^2,3′,5′-tripalmitoyldeoxyguanosine (PdG) stimulates neutrophil production. Since neutrophils are important in defense against bacteria, PdG was tested for beneficial effects in bacterial sepsis. Bacterial infection as a consequence of the immunocompromising effects of radiotherapy or chemotherapy is an important cause of mortality in cancer patients. The potential utility of PdG was evaluated in the cecal ligation and puncture model (CLP), a model of polymicrobial sepsis in which the cecum of an animal is tied off without otherwise obstructing intestinal flow, and then punctured to allow fecal matter trapped in the cecum to leak into the peritoneal cavity (O'Reilly, et al. Journal of Trauma, 33:679-682). This release causes peritonitis as well as subsequent bacteremia, shock, and mortality. The CLP model is a particularly rigorous challenge because it creates a severe and complex polymicrobial sepsis due to both Gram-negative and Gram-positive bacteria. The CLP model is analogous to a ruptured appendix or punctured intestine in humans.
36 female Balb/C mice were employed. The mice were randomly assigned to one of three groups of twelve mice each. Two groups were treated once per day for three days prior to CLP by i.p. injection with either 25 mg/kg PdG or with vehicle alone. One group underwent the CLP procedure but received no other treatment. Survival was monitored for 60 days after CLP.

Structure (SMILES): CCCCCCCCCCCCCCCC(=O)OC[C@H]1O[C@@H](n2cnc3c(=O)[nH]c(N)nc32)[C@H](O)[C@@H]1O
- colony-forming units per femur ([1]; Day 3 after CP, 2.5 μmoles/mouse/day in 0.2% Tween 80 i.p.): 645 ± 26
- colony-forming units per femur ([1]; Day 5 after CP, 2.5 μmoles/mouse/day): 2327 ± 121
- colony-forming units per femur ([1]; Day 7 after CP, 2.5 μmoles/mouse/day): 1328 ± 140
- colony-forming units per femur ([1]; Day 10 after CP, 2.5 μmoles/mouse/day): 647 ± 25

Structure (SMILES): CCCCCCCCCCCCCCCC(=O)Nc1nc2c(ncn2[C@H]2C[C@H](OC(=O)CCCCCCCCCCCCCCC)[C@@H](COC(=O)CCCCCCCCCCCCCCC)O2)c(=O)[nH]1 [PdG, 3′,5′-O-N^2-tripalmitoyl-2′-deoxyguanosine]
- serum interferon-gamma ([2]; 0 hr after LPS 100 μg, PdG 25 mg/kg i.p. daily before, 0 = below detection limit): 0 picograms per ml
- serum interferon-gamma ([2]; 2 hr after LPS, 0 = below detection limit): 0 picograms per ml
- serum interferon-gamma ([2]; 4 hr after LPS): 825 ± 248 picograms per ml
- serum interferon-gamma ([2]; 8 hr after LPS): 2129 ± 454 picograms per ml
- serum interferon-gamma ([2]; 10 hr after LPS): 911 ± 279 picograms per ml
- serum interferon-gamma ([2]; 12 hr after LPS, 0 = below detection limit): 0 picograms per ml
- serum interferon-gamma ([2]; 16 hr after LPS, 0 = below detection limit): 0 picograms per ml
- serum interferon-gamma ([2]; 20 hr after LPS, 0 = below detection limit): 0 picograms per ml
- area under the curve (AUC) over the entire time course ([2]; PdG 25 mg/kg i.p.): significantly lower
- peak IFN-gamma levels vs control values ([2]; PdG 25 mg/kg i.p.): five- to seven-fold lower
- Cells/Thymus ([3]; 25 mg/kg i.p. 48 h before Depo-Medrol 250 mg/kg, 48 h after): 64 ± 12 ×10^6
- Spleen Wt. ([3]; 25 mg/kg i.p. once, 48 h before Depo-Medrol 250 mg/kg, 48 h after corticosteroid): 61 ± 11 mg
- % Viable ([3]; thymic cells, 25 mg/kg i.p. 48 h before Depo-Medrol 250 mg/kg, 48 h after): 87 ± 3 %
- Cells ([4]; day 1): 1.9 ± .13 10^6/flask
- Cells ([4]; day 3): 2.9 ± .10 10^6/flask
- CFU-GM/flask ([4]; day 4): 5123 ± 561
- Cells ([4]; day 5): 7.7 ± .2 10^6/flask
- CFU-GM/flask ([4]; day 7): 33903 ± 9457
- Cells ([4]; day 7): 4.3 ± .15 10^6/flask
- mobilization of stem cells ([5]; PdG alone 25 mg/kg): can induce the mobilization
- response to cyclophosphamide (stem cell mobilization) with PdG ([5]; PdG with cyclophosphamide): seven to eight-fold greater
- mobilizing stem cells in intact and splenectomized mice ([5]; with and without cyclophosphamide co-treatment): equally effective
- mice alive ([6]; 72 hours after CLP): All
- animals surviving / total ([6]; 60 day observation period): 10/12
- survival ([6]; 60 day observation period): 83%
